Values quoted from earlier work as cited in patent US20250282901A1, “POLYMERIC CHELATORS CROSS-LINKED WITH HIGH MOLECULAR WEIGHT CROSS-LINKERS” (THE UNIVERSITY OF KANSAS, priority 2021, published 2025).

- relative iron binding constant (Fe(III)): 35.5
Structure (SMILES): O=C(N[C@H]1COC(=O)[C@@H](NC(=O)c2cccc(O)c2O)COC(=O)[C@@H](NC(=O)c2cccc(O)c2O)COC1=O)c1cccc(O)c1O [Enterobactin]
- Log K (natural iron chelator): 52
